A short description of data set [1]: pH change on placing the compound into deionized water of pH 7. Format: physicochemical. The note with it: simple laboratory experiment. The source says: A simple laboratory experiment confirms this effect. […] However, if icosahedral Ce(NO3)6^2− (note that this ion contains no hydroxide) is placed into deionized water of pH 7, a quite remarkable pH drop to −1 can be observed. The released tetravalent cerium ions will scavenge virtually all of the available OH^− ions in solution (possibly even degrading H2O itself to obtain OH^−), resulting in this dramatic pH drop.

The conditions of data set [2]: reduction to the trivalent ion, cited from earlier work; for calculated redox potential: in acidic solution, Nugent et al. 1971.
For data set [3] the following is noted: in water; resulting from the reported solubility product; cited from earlier work.

On to `O=[N+]([O-])O.O=[N+]([O-])O.O=[N+]([O-])O.O=[N+]([O-])O.O=[N+]([O-])O.O=[N+]([O-])O.[Ce]` [Ce(NO3)6^2−], for which, in data set [1], the “pH after placing into deionized water of pH 7” value is reported as −1.

Consider `[Cr+6]` [Cr^+6, reference compound], for which, in data set [2] (in acid solution (pH 0)), the oxidation-reduction potential is on record as 1.36 V.

Take `[Pr+4]` [Pr^+4]: the calculated redox potential in data set [2] was 3.2 V.

As for `[Tb+4]` [Tb^+4], the calculated redox potential in data set [2] is given as 3.2 V.

For the compound `[Ce+4].[OH-].[OH-].[OH-].[OH-]` [ceric hydroxide, reference compound], in data set [3], the cerium solubility entry is listed as “approximately 5×10^−12 moles/liter Ce^+4”. For the same compound, the “pH after placing into deionized water of pH 7” value in data set [1] is on record as “only a minor pH change”.

(Values after patent US7291217B2, “Non-toxic corrosion-protection pigments based on rare earth elements” (University of Dayton, priority 2002, dated 2007).)
